From US20190307818A1, “NOVEL ANTIMICROBIAL COMPOSITIONS AND METHODS OF USE” (priority 2016, published 2019)

System: P. aeruginosa PA14 ΔlasI ΔrhII CRISPR adaptation
Test: CRISPR adaptation (new spacer integration by PCR)
Assay type: cell-based
Conditions: ΔlasI ΔrhII strain; AIs 2 μM 3-O—C12-HSL+10 μM C4-HSL given together; Baicalein 100 μM with AIs; vs DMSO
Procedure: FIG. 3. QS inhibitors block CRISPR adaptation and disable QS-mediated bacterial immunity. A P. aeruginosa PA14 ΔlasI ΔrhII QS deficient strain was transformed with foreign DNA (e.g., a CRISPR-targeted plasmid). A single colony from the transformation was re-streaked on selective media containing either DMSO (as a control), AIs (2 μM 3-O—C12-HSL+10 μM C4-HSL), or AIs and a QS inhibitor (2 μM 3-O—C12-HSL+10 μM C4-HSL+100 μM Baicalein). Single colonies were tested for integration of new inserted spacers (conferring immunity) against the CRISPR-targeted plasmid. In particular, PCR primers were designed to amplify specific genomic regions into which spacers were inserted. Primers complementary to the region upstream of the CRISPR region and to the second spacer region were designed, and PCR amplification was utilized to test for the presence of the newly inserted spacer (a process referred to as adaptation).
A P. aeruginosa PA14 ΔlasI ΔrhII QS deficient strain was transformed with foreign DNA (e.g., a CRISPR-targeted plasmid such as pCR2SP1, as described above). A single colony from the transformation was re-streaked on selective medium, e.g., LB medium containing 50 μg/ml gentamicin and either DMSO (as a control), AIs (2 μM 3-O—C12-HSL+10 μM C4-HSL), or both AIs and a QS inhibitor (2 μM 3-O—C12-HSL+[…] C4-HSL+100 μM Baicalein QS inhibitor) and incubated at 37° C. O/N. Single colonies were tested for integration of new immunity spacers against the CRISPR-targeted plasmid by PCR using iProof High-Fidelity DNA Polymerase (Bio-Rad) and primers CR2SP check F+R upstream of the CRISPR2 region and in the second spacer. Thus, PCR primers were designed to amplify the genomic region in which the new spacer was present. Primers targeting a sequence upstream of the CRISPR-Cas region and targeting the second spacer region were designed, and PCR amplification was utilized to test for the presence of the new inserted spacer (a portion of the plasmid sequence inserted between the CRISPR locus and spacers). […]

O=c1cc(-c2ccccc2)oc2cc(O)c(O)c(O)c12 [Molecule 46, Baicalein]
CRISPR adaptation (fraction of cells in the colony that adapted): blocked the positive effects of AIs on CRISPR adaptation
